Results from EP0182317A2, “Antineoplastic agent” (priority 1984, dated 1986).

What was measured:
Hela S3 cells = assay: Inhibition of proliferation of incubated Hela S3 cells; format: cell-based; conditions: cells counted 3 days after addition of sample
Method: Effect of inhibiting the proliferation of incubated Hela S3 cells:
Hela S3 cells were placed on a culture medium (NEM containing 10 % of calf serum in a plastic dish. After 2 days, an organoselenium compound was added thereto. After containing the culture for additional 3 days, the number of the cells was counted. The proliferation inhibition rate was calculated according to the following formula: Inhibition rate (%) = 100 x (B-A) / (B-C) in which A is the final number of the cells counted on the third day after addition of the test sample, B is the final number of the cells in a sample- free control and C is the number of the cells counted immediately after the addition of the test sample. The value of IC50 (50 % inhibitory concentration) was determined from a graph showing the relationship between the concentration of the sample and the inhibition rate.

Ehrlich carcinoma = assay: Antineoplastic effect on Ehrlich carcinoma in mice (survival, T/C percent); format: in vivo, male ICR mouse; conditions: in the abdomen once a day for 7 days, observation period 60 days
Method: Antineoplastic effect on Ehrlich carcinoma:
(§1) About 10^6/0.2 ml of Ehrlich carcinoma cells were placed in an abdomen of each male ICR mouse of 5 weeks old. On the next day the administration of the test sample in the abdomen was started. The test sample was given once a day for 7 days. For an untreated group, a physiological saline solution was given in the same manner as above. […] The T/C percent (T/C x 100) was determined from the average survival periods (days) of the treated group and control group. Further, 50 % lethal dose (LD50) was determined from the number of the mice which died of toxicity of the test samples administered.

[1] = 50 % lethal dose from toxic deaths in the Ehrlich carcinoma experiment; format: in vivo, male ICR mouse; conditions: mice bearing Ehrlich carcinoma, in the abdomen once a day for 7 days; 43200 min
Method: as §1

[2] = system: Salmonella typhimurium TA-98; assay: Antimutagenic properties by Ames method with benzo[a]pyrene as mutagen; format: cell-based; conditions: for Number of colonies: B(a)P, S-9 mix; for inhibition rate: inhibition of the mutagenic effect of B(a)P
Method: The experiment was carried out by Ames method using Salmonella typhimurium TA-98 (hereinafter referred to as TA-98) as the test microorganism and benzo[a]pyrene (hereinafter referred to as B(a)P) as the mutagen.
0.1 ml of a solution containing […] of B(a)P and a suitable amount of a compound of the present invention was added to 0.5 ml of S-9 mix and 0.1 ml of a TA-98 suspension. The mixture was incubated at 37°C for 20 min. 2 ml of soft agar was added thereto, mixed well and then spread evenly on a glucose minimum agar medium plate. After the incubation at 37°C for 48 h, the number of colonies formed by the back mutation was counted.
The number of the colonies formed when neither B(a)P nor the compound of the present invention was used was employed as the background.
The antimutagenic properties was shown as the rate of inhibition of the mutagenic effect according to the following formula: [formula]

O=[Se](Cl)Cl.c1ccncc1 [Selenium oxychloride·pyridine (1:1) complex]
IC50 (Hela S3 cells): 0.59 µg/mL

selenium oxychloride [Compound 3]
Antineoplastic effect (T/C percent) (Ehrlich carcinoma; dose 0.75 mg/kg): 141%
Antineoplastic effect (T/C percent) (Ehrlich carcinoma; dose 1.5 mg/kg): 222%
Antineoplastic effect (T/C percent) (Ehrlich carcinoma; dose 3.0 mg/kg): 168%
Antineoplastic effect (T/C percent) (Ehrlich carcinoma; dose 6.0 mg/kg): 105%
LD50 [1]: 6 mg/kg/day x7
Number of colonies ([2]; dose 0.5 µg/plate): 205
inhibition rate ([2]; dose 0.5 µg/plate): 30.3%
Number of colonies ([2]; dose 1 µg/plate): 230
inhibition rate ([2]; dose 1 µg/plate): 22.0%
Number of colonies ([2]; dose 5 µg/plate): 154
inhibition rate ([2]; dose 5 µg/plate): 52.0%
Number of colonies ([2]; dose 10 µg/plate): 132
inhibition rate ([2]; dose 10 µg/plate): 60.6%
Number of colonies ([2]; dose 50 µg/plate): 72
inhibition rate ([2]; dose 50 µg/plate): 84.3%
Number of colonies ([2]; dose 100 µg/plate): 70
inhibition rate ([2]; dose 100 µg/plate): 85.6%
Number of colonies ([2]; dose 500 µg/plate): 27
inhibition rate ([2]; dose 500 µg/plate): 100%
